The nature of series [1]: Clinical course and tolerability of caspofungin treatment in the patient. As to conditions: 100 mg/day for 14 days; one patient. Format: in vivo, human. The text has this:
(§1) A morbidly obese person (BMI = 50 kg/m^2) was admitted to our ICU after surgical treatment of anastomotic leak in the postoperative period of elective laparoscopic bariatric surgery. The patient was in septic shock, with Candida multicolonization and other risk factors of invasive candidiasis. We decided to start antimicrobial treatment, including meropenem, linezolid and caspofungin. With the intention of maximizing the potential effectiveness of antifungal treatment, caspofungin at a dose of 100 mg/day was chosen. The caspofungin dose was calculated using a population pharmacokinetic model. Target AUC/MIC was set at 860 and therefore AUC values above 107 mg*h/L were necessary assuming MIC = 0.125 mg/L [2]. […] The manufacturer recommends caspofungin dose reduction when AUC values are above 210 mg*h/L and, accordingly, drug exposure was considered safe.

Series [2] in a line: Plasma/serum concentrations of caspofungin in a critically ill patient with morbid obesity. As to conditions: male, human, plasma, 100 mg/day; for Cmax: read-out: Cpeak. Format: in vivo.
Source text: The aim of the study was to describe the pharmacokinetic behaviour of caspofungin in a critically ill patient with morbid obesity who received doses of caspofungin higher than labelled doses.
as §1

[3] abbreviates: three days later, one morbidly obese ICU patient.

Where two headings read alike, the source gives them in different places.

Turning to `CC[C@H](C)C[C@H](C)CCCCCCCCC(=O)N[C@H]1C[C@@H](O)[C@@H](NCCN)NC(=O)[C@@H]2[C@@H](O)CCN2C(=O)[C@H]([C@H](O)CCN)NC(=O)[C@H]([C@H](O)[C@@H](O)c2ccc(O)cc2)NC(=O)[C@@H]2C[C@@H](O)CN2C(=O)[C@H]([C@@H](C)O)NC1=O` [caspofungin], in series [1], the “Adverse effects related to the drug” value is on record as “without any adverse effects”. The AUC in series [2] (after the first dose, one morbidly obese ICU patient) was 116 µg·h/mL; in series [2] (setting [3]), 140 µg·h/mL. For the same compound, the Cmax in series [2] (after the first dose, one morbidly obese ICU patient (BMI 50 kg/m^2) in septic shock) turned out to be 4.51 µg/mL; in series [2] (setting [3]), 5.97 µg/mL. Further, the level at 72 h in series [2] (three days later, one morbidly obese ICU patient, read-out: Ctrough) came to 1.76 µg/mL.

For the origin of these results see publication PMC5540490, “Plasma concentrations of caspofungin in a critically ill patient with morbid obesity” (Critical Care, 2017).
